Assay results reported in publication PMC5956543, “Antimicrobial and antioxidant activities of triterpenoid and phenolic derivatives from two Cameroonian Melastomataceae plants: Dissotis senegambiensis and Amphiblemma monticola” (BMC Complementary and Alternative Medicine, 2018).
Values after ≈ are worked out from the molar mass of the structure shown. Like-named read-outs stand apart in the source and are kept apart here.

Tests used:
S. aureus ATCC25923 = assay: Broth microdilution antimicrobial assay (MIC/MMC); assay type: cell-based, Staphylococcus aureus; conditions: for MIC / MBC: Staphylococcus aureus, 24 h; for MIC: 37 °C; for MBC: no growth after sub-culturing
Description: (§1) The microorganisms used in this study include four bacterial (Staphylococcus aureus ATCC25923, methicillin sensitive S. aureus MSSA1, methicillin resistant S. aureus MRSA3 and methicillin resistant S. aureus MRSA4) and three yeast strains (Candida albicans ATCC10231, Candida tropicalis PK233 and Cryptococcus neoformans H99). These microorganisms were taken from our laboratory collection. The fungal and bacterial strains were grown at 37 °C and maintained on Sabouraud Dextrose Agar (SDA, Conda, Madrid, Spain) and nutrient agar (NA, Conda) slants respectively.
(§2) The inocula of bacteria and yeasts were prepared from overnight cultures as previously described. Absorbance was read spectrophotometrically at 530 nm and 600 nm for yeasts and bacteria respectively. The final concentrations of microbial suspensions were 2.5 × 10^5 cells/mL for yeasts and 10^6 CFU/mL for bacteria.
(§3) The antimicrobial activity was evaluated by determining the minimum inhibitory concentrations (MICs). MICs of extracts and compounds were determined by broth micro dilution. Each test sample was dissolved in 10% v/v aqueous dimethylsulfoxide (DMSO) to give a stock solution. This was serially diluted two-fold in Mueller-Hinton Broth (MHB) for bacteria and Sabouraud Dextrose Broth (SDB) for fungi to obtain a concentration range of 4096 to 0.25 μg/mL. Then, 100 μL of each sample concentration was added to respective wells (96-well micro plate) containing 90 μL of SDB/ MHB and 10 μL of inoculum to give final concentration ranges of 2048 to 4 μg/mL (for extracts) and 256 to 0.125 μg/mL (for compounds). Dilutions of nystatin (Sigma-Aldrich, Steinheim, Germany) and ciprofloxacin (Sigma-Aldrich, Steinheim, Germany) were used as positive controls for yeasts and bacteria respectively. Broth with 10 μL of DMSO was used as negative control. The cultured micro plates were covered; then, the contents of each well were mixed thoroughly using a plate shaker (Flow Laboratory, Germany) and incubated at 37 °C for 24 h (bacteria) and 48 h (yeasts) under shaking. After the incubation period, MICs were assessed visually and were taken as the lowest sample concentration at which there was no growth or virtually no growth. The lowest concentration that yielded no growth after the sub-culturing was considered as the minimum microbicidal concentrations (MMCs). All the tests were performed in triplicate.

S. aureus MRSA4 = assay: Broth microdilution antimicrobial assay (MIC/MMC); assay type: cell-based, Staphylococcus aureus; conditions: S. aureus MRSA4; for MBC / MIC: Staphylococcus aureus, 24 h; for MBC: no growth after sub-culturing; for MIC: 37 °C
Description: as §1, §2, §3

S. aureus MRSA3 = assay: Broth microdilution antimicrobial assay (MIC/MMC); assay type: cell-based, Staphylococcus aureus; conditions: S. aureus MRSA3; for MBC / MIC: Staphylococcus aureus, 24 h; for MBC: no growth after sub-culturing; for MIC: 37 °C
Description: as §1, §2, §3

S. aureus MSSA1 = assay: Broth microdilution antimicrobial assay (MIC/MMC); assay type: cell-based, Staphylococcus aureus; conditions: for MIC / MBC: Staphylococcus aureus, 24 h; for MIC: 37 °C; for MBC: no growth after sub-culturing
Description: as §1, §2, §3

C. tropicalis PK233 = assay: Broth microdilution antimicrobial assay (MIC/MMC); assay type: cell-based, Candida tropicalis; conditions: for MIC: 37 °C; for MIC / MFC: 48 h
Description: as §1, §2, §3

[1] = tested on: bacterial and fungal strains; assay: Broth microdilution MIC, range over all tested strains; assay type: cell-based
Description: as §1, §2, §3

C. neoformans H99 = assay: Broth microdilution antimicrobial assay (MIC/MMC); assay type: cell-based, Cryptococcus neoformans; conditions: for MIC: 37 °C; for MIC / MFC: 48 h
Description: as §1, §2, §3

C. albicans ATCC10231 = assay: Broth microdilution antimicrobial assay (MIC/MMC); assay type: cell-based, Candida albicans; conditions: for MIC: 37 °C, 48 h; for MMC: no growth after sub-culturing
Description: as §1, §2, §3

[2] = Ferric reducing antioxidant power (FRAP) assay; conditions: Perl's Prussian blue at 700 nm; Fig. 2; BHT positive control
Description: The FRAP was determined by the Fe^3+-Fe^2+ transformation in the presence of extracts and compounds as previously described. The Fe^2+ was monitored by measuring the formation of Perl’s Prussian blue at 700 nm. Butylated hydroxytoluene (BHT) was used as a positive control. All the tests were performed in triplicate.

[3] = DPPH free radical scavenging assay; conditions: Fig. 3; vitamin C standard
Description: The free radical scavenging activity of extracts and compounds was evaluated according to described methods. The EC50 (μg/ml), which is the amount of sample necessary to inhibit by 50% the absorbance of free radical DPPH was calculated. Vitamin C was used as a standard control. All the analyses were carried out in triplicate.

[4] = Candida tropicalis, read-out: MIC
[5] = Candida tropicalis, no growth after sub-culturing
[6] = range over all bacterial and fungal strains, read-out: MIC
[7] = Cryptococcus neoformans, read-out: MIC
[8] = Cryptococcus neoformans, no growth after sub-culturing
[9] = Candida albicans, read-out: MIC

SMILES	MMC/MIC (S. aureus ATCC25923)	MIC (S. aureus ATCC25923) [µg/mL]	MBC (S. aureus ATCC25923) [µg/mL]	MMC/MIC (S. aureus MRSA4)	MBC (S. aureus MRSA4) [µg/mL]	MIC (S. aureus MRSA4) [µg/mL]	MMC/MIC (S. aureus MRSA3)	MBC (S. aureus MRSA3) [µg/mL]	MIC (S. aureus MRSA3) [µg/mL]	MMC/MIC (S. aureus MSSA1)	MIC (S. aureus MSSA1) [µg/mL]	MBC (S. aureus MSSA1) [µg/mL]	MIC (C. tropicalis PK233; [4]) [µg/mL]	MFC (C. tropicalis PK233; [5]) [µg/mL]	MIC (C. neoformans H99; [7]) [µg/mL]	MFC (C. neoformans H99; [8]) [µg/mL]	MIC (C. albicans ATCC10231; [9]) [µg/mL]	MMC (C. albicans ATCC10231) [µg/mL]	reducing power (FRAP, in words) [2]	DPPH radical-scavenging activity (in words) [3]	other results
O=C(O)c1cn(C2CC2)c2cc(N3CCNCC3)c(F)cc2c1=O [Ciprofloxacin, reference compound]	1	1 (≈ 3.02 µM)	1 (≈ 3.02 µM)	1	32 (≈ 96.6 µM)	32 (≈ 96.6 µM)	1	16 (≈ 48.3 µM)	16 (≈ 48.3 µM)	1	1 (≈ 3.02 µM)	1 (≈ 3.02 µM)	–	–	–	–	–	–	–	–	–
C[C@H]1[C@H](C)CC[C@]2(C(=O)O)CC[C@]3(C)C(=CC[C@@H]4[C@@]5(C)CC[C@H](O)C(C)(C)[C@@H]5CC[C@]43C)[C@H]12 [Compound 3, ursolic acid]	–	256 (≈ 561 µM)	> 256	–	> 256	128 (≈ 280 µM)	–	> 256	128 (≈ 280 µM)	–	128 (≈ 280 µM)	> 256	256 (≈ 561 µM)	> 256	128 (≈ 280 µM)	> 256	256 (≈ 561 µM)	> 256	–	–	antimicrobial activity (in words) ([1]; all the tested bacterial and fungal species): active against all the tested bacterial and fungal species; MIC [1, 6]: 128 to 256 µg/mL (≈ 280 to 561 µM)
CC[C@H](CC[C@@H](C)[C@H]1CCC2C3CC=C4C[C@@H](O[C@@H]5O[C@H](CO)[C@@H](O)[C@H](O)[C@H]5O)CC[C@]4(C)C3CC[C@@]21C)C(C)C (stereo partly drawn) [Compound 4, sitosterol-3-O-β-D-glucopyranoside]	–	> 256	> 256	–	> 256	> 256	–	> 256	> 256	–	> 256	> 256	256 (≈ 444 µM)	> 256	128 (≈ 222 µM)	> 256	256 (≈ 444 µM)	> 256	not active	not active	–
O=c1cc(-c2ccc(O)cc2)oc2c([C@@H]3O[C@H](CO)[C@@H](O)[C@H](O)[C@H]3O)c(O)cc(O)c12 [Compound 5, vitexin]	2	64 (≈ 148 µM)	128 (≈ 296 µM)	2	256 (≈ 592 µM)	128 (≈ 296 µM)	2	128 (≈ 296 µM)	64 (≈ 148 µM)	2	64 (≈ 148 µM)	128 (≈ 296 µM)	64 (≈ 148 µM)	128 (≈ 296 µM)	128 (≈ 296 µM)	128 (≈ 296 µM)	128 (≈ 296 µM)	256	–	–	MMC/MIC (C. tropicalis PK233): 2; MIC [1]: 64 to 128 µg/mL (≈ 148 to 296 µM); MMC/MIC (C. neoformans H99): 1; MMC/MIC (C. albicans ATCC10231): 2
O=C(C=Cc1ccc(O)cc1)OCC1OC(Oc2c(-c3ccc(O)cc3)oc3cc(O)cc(O)c3c2=O)C(O)C(O)C1O (stereo not drawn) [Compound 6, trans-tiliroside]	2	32 (≈ 53.8 µM)	64 (≈ 108 µM)	1	128 (≈ 215 µM)	128 (≈ 215 µM)	2	128 (≈ 215 µM)	64 (≈ 108 µM)	1	64 (≈ 108 µM)	64 (≈ 108 µM)	64 (≈ 108 µM)	64 (≈ 108 µM)	64 (≈ 108 µM)	128 (≈ 215 µM)	64 (≈ 108 µM)	64	–	–	MMC/MIC (C. tropicalis PK233): 1; MIC [1, 6]: 32 to 128 µg/mL (≈ 53.8 to 215 µM); MMC/MIC (C. neoformans H99): 2; MMC/MIC (C. albicans ATCC10231): 1
C=C(C)[C@@H]1CC[C@]2(C)CC[C@]3(C)[C@H](CC[C@@H]4[C@@]5(C)CC[C@H](O)C(C)(C)[C@@H]5CC[C@]43C)[C@@H]12 [Compound 9, lupeol]	–	256 (≈ 600 µM)	> 256	–	> 256	> 256	–	> 256	> 256	–	256 (≈ 600 µM)	> 256	256 (≈ 600 µM)	> 256	256 (≈ 600 µM)	> 256	> 256	–	not active	not active	–
CC1(C)CC[C@]2(C(=O)O)CC[C@]3(C)C(=CC[C@@H]4[C@@]5(C)CC[C@H](O)C(C)(C)[C@@H]5CC[C@]43C)[C@@H]2C1 [Compound 13, oleanolic acid]	–	–	–	–	–	–	–	–	–	–	–	–	–	–	–	–	–	–	not active	not active	–
C[C@@H]1[C@H](O)[C@@H](C)/C=C/C=C/CC/C=C/C=C/C=C/C=C/C(O[C@H]2O[C@H](C)[C@@H](O)[C@H](N)[C@@H]2O)CC2O[C@](O)(CC(O)C(O)CCC(O)CC(O)CC(O)CC(=O)O[C@H]1C)CC(O)C2C(=O)O (stereo partly drawn) [nystatin, reference compound]	–	–	–	–	–	–	–	–	–	–	–	–	–	–	–	–	–	2	–	–	MMC/MIC (C. tropicalis PK233): 2; MIC (C. tropicalis PK233): 0.5 µg/mL (≈ 0.54 µM); MMC (C. tropicalis PK233; no growth after sub-culturing): 1 µg/mL; MMC/MIC (C. neoformans H99): 1; MIC (C. neoformans H99): 1 µg/mL (≈ 1.08 µM); MMC (C. neoformans H99; no growth after sub-culturing): 1 µg/mL; MMC/MIC (C. albicans ATCC10231): 1; MIC (C. albicans ATCC10231): 2 µg/mL (≈ 2.16 µM)
